Measured values reported in the METLIN SMRT retention time set (Domingo-Almenara et al. 2019).

Experiment: gradient 5% acetonitrile 3 min, to 50% in 2 min, to 85% in 15 min, held 3 min, 100 µL/min
Details: column: Zorbax Extend-C18 2.1 x 50 mm; eluents: water / acetonitrile, 0.1% formic acid
How it was run: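 Using water and acetonitrile that each contained 0.1% formic acid, mixtures of ~100 pure standards were separated at 100 μL/min on a Zorbax Extend-C18 column (2.1 × 50 mm, 1.8 μm). The HPLC fed a quadrupole time-of-flight mass spectrometer working in positive and negative ionization mode, with dead and dwell volumes of 40 μL and 900 μL. Data were acquired over 3 months. Retention time was read from computationally picked adduct peaks after manual inspection of each.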
An RP-LC retention time of 680 s was found for `O=C(NCCCN1CCc2ccccc2C1)c1nnc(-c2ccc(S(=O)(=O)N3CCCC3)cc2)o1` in this work.
An RP-LC retention time of 580 s was found for `CCN1CCN(C(=O)Cn2c3ccccc3c3cnn(C)c(=O)c32)CC1` in this work.
An RP-LC retention time of 657 s was found for `Cc1ccc(-c2cc(C(=O)N3CCN(c4ccc(N5CCOCC5)nn4)CC3)[nH]n2)cc1C` in this work.
An RP-LC retention time of 728 s was found for `Cn1cnc(S(=O)(=O)N2CCC(C(=O)NC3CCCc4ccccc43)CC2)c1` (stereo not given) in this work.
An RP-LC retention time of 776 s was found for `COC(=O)c1cccc(Nc2c(-c3ccc(N(C)C)cc3)nc3cnccn23)c1` in this work.
An RP-LC retention time of 553 s was found for `CN(C)c1nccnc1OC1CCN(C(=O)c2ccncc2)C1` (stereo not given) in this work.
An RP-LC retention time of 698 s was found for `Cc1ccc(-c2cc(C(=O)N3CCC(NC(=O)c4cc(C5CC5)[nH]n4)CC3)[nH]n2)cc1C` in this work.
An RP-LC retention time of 612 s was found for `O=C(O)c1nnn(-c2ccccc2F)c1-c1cccnc1` in this work.
An RP-LC retention time of 603 s was found for `O=C(Nc1ccc(N2CCOCC2)cc1)C1=CCN(Cc2ccc(F)cc2)CC1` in this work.
An RP-LC retention time of 596 s was found for `O=C(NC1CC1)[C@@H]1C[C@H](Oc2cccnc2)CN1C(=O)Cn1c(=O)oc2ccccc21` in this work.
An RP-LC retention time of 651 s was found for `O=C(NCc1ccco1)c1cn(-c2cc(N3CCOCC3)ncn2)cn1` in this work.
An RP-LC retention time of 904 s was found for `COC(=O)c1ccc(CSc2nnc(NC(=O)c3nc4ccccc4s3)s2)o1` in this work.
An RP-LC retention time of 792 s was found for `COc1cccc(NC(=O)c2cccn2Cc2noc(C)n2)c1` in this work.
An RP-LC retention time of 953 s was found for `NS(=O)(=O)c1cccnc1Nc1ccc(Oc2ccccc2)cc1` in this work.
An RP-LC retention time of 633 s was found for `Cc1nc(C)c(C(=O)NCC23CCCC=C2NC(=O)CC3)s1` (stereo not given) in this work.
An RP-LC retention time of 804 s was found for `COc1ccc(NC(=O)N2CCc3nc(-c4ccccc4)ncc3C2)cc1OC` in this work.
An RP-LC retention time of 945 s was found for `CCN(C(=O)c1cc2c(=O)n(CC)c3ccccc3n2n1)c1ccc(F)cc1` in this work.
An RP-LC retention time of 725 s was found for `COC(=O)c1c(NC(C)C)c2cccc(Cl)c2[nH]c1=O` in this work.
An RP-LC retention time of 1080 s was found for `CN(C)S(=O)(=O)c1ccc(-c2nnc(C(=O)N3CCC(Cc4ccccc4)CC3)o2)cc1` in this work.
An RP-LC retention time of 987 s was found for `COc1ccc(C2CC(=O)N(c3ccc(C(C)C)cc3)C(=O)C2)cc1OC` in this work.
An RP-LC retention time of 991 s was found for `COc1ccc(-c2ncc3c(n2)CCN(S(=O)(=O)c2ccc(OC)cc2)C3)cc1` in this work.
An RP-LC retention time of 613 s was found for `CCCN(Cc1ccc(OC)c(OC)c1)Cc1cc(=O)n2ccc(C)cc2n1` in this work.
An RP-LC retention time of 594 s was found for `O=C(c1ccccc1OCC1CCCN(C2CCCCC2)C1)N1CCCCC1` (stereo not given) in this work.
An RP-LC retention time of 730 s was found for `CCc1ccccc1NC(=O)N(C)CC1CCOCC1` in this work.
An RP-LC retention time of 640 s was found for `COc1ccc(S(=O)(=O)N2CCCC(C(N)=O)C2)cc1OC` (stereo not given) in this work.
An RP-LC retention time of 741 s was found for `CC(=O)c1ccc2c(c1)N(CCCN(C)C)c1ccccc1S2` in this work.
An RP-LC retention time of 744 s was found for `CCOc1cc2c(cc1OCC)C1C(C(=O)NCCOC)c3ccccc3C(=O)N1CC2` (stereo not given) in this work.
An RP-LC retention time of 571 s was found for `COCCNC(=O)N1CCC(C(=O)NCC(F)(F)F)CC1` in this work.
An RP-LC retention time of 1200 s was found for `CCc1ccc(-c2noc(Cn3nc(-c4ccc5c(c4)OCO5)ccc3=O)n2)cc1` in this work.
An RP-LC retention time of 784 s was found for `Cc1nn(C)cc1CN1CC(F)(F)C[C@H]1c1nnc(-c2ccccc2)o1` in this work.
An RP-LC retention time of 1200 s was found for `COc1ccc(CNC(=O)Nc2ccc(-c3nc(-c4cc(C)ccc4C)co3)cc2)cc1` in this work.
An RP-LC retention time of 782 s was found for `Cc1cccc(N(C)C(=O)c2cccc(NC(=O)[C@H]3[C@@H]4C[C@@H]5[C@H]3C(=O)O[C@@H]5C4)c2)c1` in this work.
An RP-LC retention time of 588 s was found for `CCCc1nc2cccnc2n1C1CCN(C(=O)c2ccc(OC)nc2)C1` (stereo not given) in this work.
An RP-LC retention time of 735 s was found for `CC(=O)Oc1cccc(C2C3=C(CC(C)(C)CC3=O)Nc3ccccc3N2C(C)=O)c1` (stereo not given) in this work.
An RP-LC retention time of 610 s was found for `CCN1CCN(CC2CCN(S(=O)(=O)Cc3ccc(Cl)cc3)CC2)CC1` in this work.
An RP-LC retention time of 633 s was found for `O=C(c1cn(-c2ccc(S(=O)(=O)N3CCCCC3)cc2)cn1)N1CCN(c2ccccn2)CC1` in this work.
An RP-LC retention time of 613 s was found for `CCOC(=O)CNC(=O)Nc1ncc(-c2ccccc2)n1C` in this work.
An RP-LC retention time of 723 s was found for `COc1cccc(NC(=O)C2CCN(Cc3cnn(-c4ccccc4)c3-n3cccc3)CC2)c1` in this work.
An RP-LC retention time of 597 s was found for `Cc1cc2nc(C)c(CCC(=O)O)c(C)n2n1` in this work.
An RP-LC retention time of 757 s was found for `Cc1cccn2c(=O)c3cc(C(=O)NCCc4ccc(S(N)(=O)=O)cc4)n(C)c3nc12` in this work.
An RP-LC retention time of 670 s was found for `Cc1ccc(C(=O)N2CCN(c3nnc4cccc(C)n34)CC2)cc1` in this work.
An RP-LC retention time of 832 s was found for `O=C(NCc1nc(-c2ccc(NS(=O)(=O)c3ccccc3)cc2)no1)c1cccs1` in this work.
An RP-LC retention time of 990 s was found for `O=C(CC1CCCC1)Nc1cnc(-c2ccccc2)nc1` in this work.
An RP-LC retention time of 853 s was found for `CCc1cc(=O)n(CC(=O)Nc2ccc(Br)cc2F)c(N2CCOCC2)n1` in this work.
An RP-LC retention time of 697 s was found for `COc1nccnc1N1CCC(N(C)C(=O)NCc2cccc(F)c2)C1` (stereo not given) in this work.
